This note sets out measurements from patent publication US20150087627A1, “COMBINATION OF KINASE INHIBITORS AND USES THEREOF” (Intellikine LLC, priority 2011, published 2015).

Like-named read-outs stand apart in the source and are kept apart here.

What all share (type): biochemical
The target of one experiment is T1, PI3K α (p110α/p85α) (Homo sapiens, UniProt P42336).
T1 construct: purchased Upstate / Millipore Corporation
In words: PI 3-Kinase (human) HTRF assay, PI3K α. The settings on record: read-out: PI3K α IC50.

A further experiment deals with T2, PI3K γ (p110γ) (Homo sapiens, UniProt P48736).
T2 construct: purchased Upstate / Millipore Corporation
In words: PI 3-Kinase (human) HTRF assay, PI3K γ. Particulars: read-out: PI3K γ IC50. For orientation: In TR-FRET formats the signal depends on donor and acceptor labels being close together.

The target in the next experiment is T3, PI3K δ (Homo sapiens, UniProt O00329).
T3 construct: purchased Upstate / Millipore Corporation
In words: PI 3-Kinase (human) HTRF assay, PI3K δ. The settings on record: read-out: PI3K δ IC50.

The target in a further experiment is T4, PI3K β (p110β/p85α) (Homo sapiens, UniProt P42338).
T4 construct: purchased Upstate / Millipore Corporation
The experiment is described as follows: PI 3-Kinase (human) HTRF assay, PI3K β. Particulars: read-out: PI3K β IC50.

T2 sequence (P48736 whole entry): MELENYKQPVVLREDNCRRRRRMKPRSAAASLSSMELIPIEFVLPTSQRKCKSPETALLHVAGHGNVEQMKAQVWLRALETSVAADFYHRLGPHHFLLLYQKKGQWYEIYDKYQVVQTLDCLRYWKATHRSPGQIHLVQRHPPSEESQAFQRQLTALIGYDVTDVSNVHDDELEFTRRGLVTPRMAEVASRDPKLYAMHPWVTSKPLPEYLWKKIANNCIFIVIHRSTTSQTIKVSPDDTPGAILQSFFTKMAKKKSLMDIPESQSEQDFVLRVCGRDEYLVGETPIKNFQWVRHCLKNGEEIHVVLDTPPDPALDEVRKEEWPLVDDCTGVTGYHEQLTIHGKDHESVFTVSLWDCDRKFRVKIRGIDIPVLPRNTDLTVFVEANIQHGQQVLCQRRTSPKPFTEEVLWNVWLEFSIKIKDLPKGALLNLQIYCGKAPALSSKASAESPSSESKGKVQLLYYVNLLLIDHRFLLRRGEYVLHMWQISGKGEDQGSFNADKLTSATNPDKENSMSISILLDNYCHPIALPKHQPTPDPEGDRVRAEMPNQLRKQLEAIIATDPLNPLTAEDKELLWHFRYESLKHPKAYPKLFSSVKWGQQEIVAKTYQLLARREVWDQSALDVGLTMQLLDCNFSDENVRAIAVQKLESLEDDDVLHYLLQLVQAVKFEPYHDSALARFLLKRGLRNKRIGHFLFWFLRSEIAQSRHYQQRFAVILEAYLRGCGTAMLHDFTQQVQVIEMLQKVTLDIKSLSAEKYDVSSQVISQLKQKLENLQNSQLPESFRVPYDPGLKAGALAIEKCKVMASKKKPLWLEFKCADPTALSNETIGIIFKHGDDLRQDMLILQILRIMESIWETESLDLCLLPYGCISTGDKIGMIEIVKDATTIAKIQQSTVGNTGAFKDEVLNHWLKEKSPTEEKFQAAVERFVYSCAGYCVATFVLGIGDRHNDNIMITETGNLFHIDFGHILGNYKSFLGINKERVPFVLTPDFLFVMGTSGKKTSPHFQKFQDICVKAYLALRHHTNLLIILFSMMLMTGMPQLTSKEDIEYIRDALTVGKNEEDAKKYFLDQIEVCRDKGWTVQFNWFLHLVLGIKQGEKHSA
T1 sequence (P42336 whole entry): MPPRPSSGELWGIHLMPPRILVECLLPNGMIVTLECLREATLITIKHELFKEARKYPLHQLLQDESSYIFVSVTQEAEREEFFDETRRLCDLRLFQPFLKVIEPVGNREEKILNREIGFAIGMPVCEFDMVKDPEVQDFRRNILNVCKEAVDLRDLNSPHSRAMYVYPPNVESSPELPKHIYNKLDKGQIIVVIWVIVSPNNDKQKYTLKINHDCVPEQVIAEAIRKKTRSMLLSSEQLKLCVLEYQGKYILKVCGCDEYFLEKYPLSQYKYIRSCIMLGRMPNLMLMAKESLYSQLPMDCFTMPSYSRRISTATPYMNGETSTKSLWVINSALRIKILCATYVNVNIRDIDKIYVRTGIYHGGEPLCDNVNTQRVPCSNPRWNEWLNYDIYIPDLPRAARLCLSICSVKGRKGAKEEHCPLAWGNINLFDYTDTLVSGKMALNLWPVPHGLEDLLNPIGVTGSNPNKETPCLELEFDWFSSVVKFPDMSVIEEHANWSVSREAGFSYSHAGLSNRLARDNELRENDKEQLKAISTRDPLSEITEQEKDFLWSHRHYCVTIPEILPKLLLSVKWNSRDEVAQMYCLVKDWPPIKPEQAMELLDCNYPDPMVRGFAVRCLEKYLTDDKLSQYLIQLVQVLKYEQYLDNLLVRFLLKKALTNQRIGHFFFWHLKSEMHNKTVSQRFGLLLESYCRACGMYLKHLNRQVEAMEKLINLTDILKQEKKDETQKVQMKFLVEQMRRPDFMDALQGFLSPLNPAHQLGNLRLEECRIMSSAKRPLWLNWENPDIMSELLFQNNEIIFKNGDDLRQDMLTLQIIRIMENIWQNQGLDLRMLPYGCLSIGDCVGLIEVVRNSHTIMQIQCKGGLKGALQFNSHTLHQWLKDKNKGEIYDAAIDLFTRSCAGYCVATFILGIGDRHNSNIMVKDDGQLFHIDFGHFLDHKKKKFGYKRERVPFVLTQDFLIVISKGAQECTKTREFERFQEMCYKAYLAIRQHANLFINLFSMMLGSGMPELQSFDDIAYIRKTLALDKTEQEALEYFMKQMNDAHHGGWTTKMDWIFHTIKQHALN
T1 sequence (P27986 whole entry partner): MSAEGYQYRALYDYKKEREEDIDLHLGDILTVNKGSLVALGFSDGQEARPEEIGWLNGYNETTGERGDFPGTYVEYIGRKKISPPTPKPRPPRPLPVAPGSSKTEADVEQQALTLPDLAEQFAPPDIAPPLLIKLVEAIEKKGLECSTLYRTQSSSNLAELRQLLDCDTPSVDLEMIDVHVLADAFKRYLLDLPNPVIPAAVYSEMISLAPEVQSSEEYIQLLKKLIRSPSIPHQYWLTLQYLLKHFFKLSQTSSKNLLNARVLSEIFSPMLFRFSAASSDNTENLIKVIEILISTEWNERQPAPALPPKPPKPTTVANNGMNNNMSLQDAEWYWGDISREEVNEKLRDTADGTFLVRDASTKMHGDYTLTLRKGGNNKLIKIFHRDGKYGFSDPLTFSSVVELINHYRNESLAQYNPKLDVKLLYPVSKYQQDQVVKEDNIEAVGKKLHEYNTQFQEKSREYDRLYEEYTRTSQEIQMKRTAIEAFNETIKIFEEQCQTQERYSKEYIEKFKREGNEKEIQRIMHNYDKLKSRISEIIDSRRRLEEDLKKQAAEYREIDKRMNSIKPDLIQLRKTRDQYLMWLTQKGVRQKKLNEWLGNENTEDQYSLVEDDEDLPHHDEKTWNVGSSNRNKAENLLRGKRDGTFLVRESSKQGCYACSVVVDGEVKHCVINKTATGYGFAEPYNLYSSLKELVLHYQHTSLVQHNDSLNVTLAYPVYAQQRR
T3 sequence (O00329 whole entry): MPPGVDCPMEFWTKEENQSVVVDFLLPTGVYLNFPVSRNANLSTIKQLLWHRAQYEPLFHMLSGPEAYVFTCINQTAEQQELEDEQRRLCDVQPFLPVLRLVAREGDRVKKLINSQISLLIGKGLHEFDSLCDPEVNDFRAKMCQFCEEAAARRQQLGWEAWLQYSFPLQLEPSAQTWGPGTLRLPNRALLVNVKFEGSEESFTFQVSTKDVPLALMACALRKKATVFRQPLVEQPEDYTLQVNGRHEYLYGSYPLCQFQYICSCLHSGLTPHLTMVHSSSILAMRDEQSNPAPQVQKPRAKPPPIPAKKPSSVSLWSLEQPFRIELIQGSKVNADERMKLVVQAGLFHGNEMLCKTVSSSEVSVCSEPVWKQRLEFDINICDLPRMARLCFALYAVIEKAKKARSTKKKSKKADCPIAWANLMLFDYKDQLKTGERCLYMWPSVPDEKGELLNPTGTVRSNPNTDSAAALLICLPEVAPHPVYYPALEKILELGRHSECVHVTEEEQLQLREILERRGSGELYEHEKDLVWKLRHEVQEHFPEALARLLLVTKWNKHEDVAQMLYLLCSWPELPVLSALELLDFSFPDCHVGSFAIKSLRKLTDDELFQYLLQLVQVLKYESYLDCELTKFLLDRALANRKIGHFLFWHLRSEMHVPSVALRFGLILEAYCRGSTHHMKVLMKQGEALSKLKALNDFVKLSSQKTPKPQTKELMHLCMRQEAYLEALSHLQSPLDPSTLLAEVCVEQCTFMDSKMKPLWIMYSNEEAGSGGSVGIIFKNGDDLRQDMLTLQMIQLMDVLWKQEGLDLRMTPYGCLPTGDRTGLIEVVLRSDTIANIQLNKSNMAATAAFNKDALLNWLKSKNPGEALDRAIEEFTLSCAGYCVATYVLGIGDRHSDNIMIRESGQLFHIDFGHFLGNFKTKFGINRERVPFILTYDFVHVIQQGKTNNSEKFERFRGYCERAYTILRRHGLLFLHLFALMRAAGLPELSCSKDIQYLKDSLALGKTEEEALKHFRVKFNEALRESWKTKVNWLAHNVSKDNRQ
T3 sequence (P27986 whole entry partner): as the sequence (P27986 whole entry partner) above
T4 sequence (P42338 whole entry): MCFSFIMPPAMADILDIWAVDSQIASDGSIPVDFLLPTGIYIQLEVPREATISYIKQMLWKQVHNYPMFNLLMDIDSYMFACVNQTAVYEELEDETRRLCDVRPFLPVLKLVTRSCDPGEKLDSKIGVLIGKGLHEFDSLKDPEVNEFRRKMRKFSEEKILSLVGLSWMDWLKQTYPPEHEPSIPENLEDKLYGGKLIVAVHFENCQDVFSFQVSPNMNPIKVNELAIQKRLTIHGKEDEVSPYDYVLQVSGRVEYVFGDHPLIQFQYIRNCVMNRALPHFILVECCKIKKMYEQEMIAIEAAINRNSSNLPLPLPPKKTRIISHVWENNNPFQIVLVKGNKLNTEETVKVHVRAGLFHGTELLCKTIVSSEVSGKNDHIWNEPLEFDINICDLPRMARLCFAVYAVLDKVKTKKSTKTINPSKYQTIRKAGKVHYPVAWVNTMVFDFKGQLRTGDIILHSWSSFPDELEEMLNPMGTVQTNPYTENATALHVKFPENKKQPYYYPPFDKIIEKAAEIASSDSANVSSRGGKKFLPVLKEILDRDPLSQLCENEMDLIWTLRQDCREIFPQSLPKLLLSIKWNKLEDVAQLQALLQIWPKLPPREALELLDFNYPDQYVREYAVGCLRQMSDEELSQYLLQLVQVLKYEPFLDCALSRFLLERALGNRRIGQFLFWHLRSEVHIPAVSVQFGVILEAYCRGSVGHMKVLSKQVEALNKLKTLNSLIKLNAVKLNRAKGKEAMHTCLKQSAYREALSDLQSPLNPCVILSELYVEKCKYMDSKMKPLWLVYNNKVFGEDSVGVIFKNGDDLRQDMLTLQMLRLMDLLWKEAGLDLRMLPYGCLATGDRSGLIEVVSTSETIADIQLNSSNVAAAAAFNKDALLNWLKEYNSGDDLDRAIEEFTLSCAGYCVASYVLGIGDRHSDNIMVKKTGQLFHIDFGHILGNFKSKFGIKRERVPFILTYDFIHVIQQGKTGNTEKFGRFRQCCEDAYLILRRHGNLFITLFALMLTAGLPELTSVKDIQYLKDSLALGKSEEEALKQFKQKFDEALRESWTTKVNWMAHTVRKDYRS
T4 sequence (P27986 whole entry partner): as the sequence (P27986 whole entry partner) above

As usually defined, the IC50 is the midpoint of a concentration-inhibition curve. Regarding `Nc1nc2cc(-c3ccc4ncc(-c5cn[nH]c5)n4c3)ccc2o1` [Compound 38], the IC50 at PI3K α (p110α/p85α), at PI3K γ (p110γ) and at PI3K δ was under 100 nM in each case.
On to `Cc1ncc(-c2ccc3ncc(C(=O)N4CCOCC4)n3c2)c2cn[nH]c12` [Compound 530], for which the IC50 at PI3K α (p110α/p85α) was under 100 nM; on PI3K β (p110β/p85α), over 10000 nM; at PI3K γ (p110γ), over 10000 nM.
On to `CN1CCN(c2cc(-c3cnc4ccc(-c5ccc6oc(N)nc6c5)cn34)ccn2)CC1` [Compound 43], for which the IC50 on PI3K α (p110α/p85α), on PI3K γ (p110γ) and at PI3K δ was under 100 nM each time.
Turning to `CCOC(=O)N1CC=C(c2cnc3ccc(-c4ccc5oc(N)nc5c4)nc3n2)CC1` [Compound 560], the IC50 at PI3K α (p110α/p85α) (Table 4 (PI3K α inhibitors)) and on PI3K γ (p110γ) (Table 4 (PI3K α inhibitors)) was under 100 nM throughout.
For `C[C@@H]1CN(C2CN(c3cnc4ccc(-c5ccc6oc(N)nc6c5)nc4c3)C2)CCN1` [Compound 607], the values for the IC50 at PI3K α (p110α/p85α) (Table 4 (PI3K α inhibitors)), at PI3K γ (p110γ) (Table 4 (PI3K α inhibitors)) and on PI3K δ (Table 4 (PI3K α inhibitors)) were under 100 nM, under 1000 nM and under 1000 nM, respectively.
Turning to `Nc1nc2cc(-c3ccc4nccc(-c5cccnc5)c4c3)ccc2o1` [Compound 31], the IC50 on PI3K α (p110α/p85α), at PI3K γ (p110γ) and at PI3K δ was under 100 nM in each case.
Turning to `C[C@@H](N)C(=O)N1CCN(c2cnc3ccc(-c4ccc5oc(N)nc5c4)nc3n2)CC1` [Compound 582], the IC50 on PI3K α (p110α/p85α) (Table 4 (PI3K α inhibitors)) is under 100 nM; at PI3K γ (p110γ) (Table 4 (PI3K α inhibitors)), under 1000 nM.
Consider `Nc1nc2cc(-c3ccc4ncc(N5CC6CCC(C5)O6)cc4n3)ccc2o1` [Compound 579], for which the IC50 on PI3K γ (p110γ) (Table 4 (PI3K α inhibitors)) was under 1000 nM.
Consider `Nc1nc2cc(-c3ccc4ncc(N5CCC(O)CC5)cc4n3)ccc2o1` [Compound 613], for which the IC50 on PI3K α (p110α/p85α) (Table 4 (PI3K α inhibitors)) was under 100 nM; on PI3K γ (p110γ) (Table 4 (PI3K α inhibitors)), under 1000 nM.
For `Nc1nc2cc(-c3ccc4ncc(N5CCC(O)CC5)nc4n3)ccc2o1` [Compound 596], the IC50 on PI3K α (p110α/p85α) (Table 4 (PI3K α inhibitors)) is under 100 nM; at PI3K γ (p110γ) (Table 4 (PI3K α inhibitors)), under 100 nM; on PI3K δ (Table 4 (PI3K α inhibitors)), over 10000 nM.
As for `Nc1nc2cc(-c3ccc4ncc(N5CC(N6CCN(C7CC7)CC6)C5)cc4n3)ccc2o1` [Compound 621], the IC50 at PI3K α (p110α/p85α) (Table 4 (PI3K α inhibitors)) was under 100 nM; at PI3K γ (p110γ) (Table 4 (PI3K α inhibitors)), under 1000 nM.
For the molecule `Nc1nc2cc(-c3ccc4nccc(CCN5CCOCC5)c4c3)ccc2o1` [Compound 27], the IC50 at PI3K α (p110α/p85α) was under 1000 nM; at PI3K γ (p110γ), under 100 nM; on PI3K δ, under 10000 nM.
The like results for `Nc1nc2cc(-c3ccc4nccc(NCCN5CCOCC5)c4c3)ccc2o1` [Compound 33] were, in that order, under 100 nM, under 1000 nM and under 1000 nM.
As to `C[C@H]1COCCN1c1cnc2ccc(-c3ccc4oc(N)nc4c3)nc2n1` [Compound 566], the IC50 at PI3K α (p110α/p85α) (Table 4 (PI3K α inhibitors)) is under 100 nM; at PI3K γ (p110γ) (Table 4 (PI3K α inhibitors)), under 100 nM; at PI3K δ (Table 4 (PI3K α inhibitors)), over 10000 nM.
Take `C[C@@H]1COCCN1C1CN(c2cnc3ccc(-c4ccc5oc(N)nc5c4)nc3c2)C1` [Compound 617]: the IC50 on PI3K α (p110α/p85α) (Table 4 (PI3K α inhibitors)) was under 100 nM; at PI3K γ (p110γ) (Table 4 (PI3K α inhibitors)), under 100 nM; at PI3K δ (Table 4 (PI3K α inhibitors)) it was under 1000 nM.
Regarding `Nc1nc2cc(-c3ccc4ncc(C5=CCOCC5)nc4n3)ccc2o1` [Compound 562], the IC50 on PI3K α (p110α/p85α) (Table 4 (PI3K α inhibitors)) was under 100 nM; on PI3K γ (p110γ) (Table 4 (PI3K α inhibitors)), under 100 nM; at PI3K δ (Table 4 (PI3K α inhibitors)) it was over 10000 nM.
Turning to `Nc1nc2cc(-c3ccc4nccc(N5CCOCC5)c4c3)ccc2o1` [Compound 28], the IC50 on PI3K α (p110α/p85α) is under 100 nM; at PI3K γ (p110γ), under 100 nM; at PI3K δ, under 1000 nM.
For `CN1CCC(Oc2ncnc3ccc(-c4ccc5oc(N)nc5c4)cc23)CC1` [Compound 34], the figures for the IC50 on PI3K α (p110α/p85α), at PI3K γ (p110γ) and on PI3K δ were under 100 nM, under 1000 nM and under 1000 nM, respectively.
Regarding `CS(=O)(=O)N1CCC(n2cnc3ccc(-c4ccc5oc(N)nc5c4)cc3c2=O)CC1` [Compound 67], the results for the IC50 at PI3K α (p110α/p85α), at PI3K γ (p110γ) and on PI3K δ were under 1000 nM, over 10000 nM and over 10000 nM, respectively.
Take `CN1CCN(c2cc(-c3ccnc4ccc(-c5ccc6oc(N)nc6c5)cc34)ccn2)CC1` [Compound 30]: the IC50 on PI3K α (p110α/p85α), on PI3K γ (p110γ) and on PI3K δ was under 100 nM throughout.
In the case of `C[C@@H]1COCCN1c1cnc2ccc(-c3ccc4oc(N)nc4c3)nc2n1` [Compound 565], the IC50 on PI3K α (p110α/p85α) (Table 4 (PI3K α inhibitors)) and on PI3K γ (p110γ) (Table 4 (PI3K α inhibitors)) was under 100 nM in each case.
On to `CC(=O)Nc1nc2cc(-c3ccc4oc(N)nc4c3)ccc2o1` [Compound 244], for which the IC50 at PI3K α (p110α/p85α), at PI3K β (p110β/p85α) and at PI3K δ was over 10000 nM in each case.
As for `CN1CCN(C2CCN(c3cnc4ccc(-c5ccc6oc(N)nc6c5)cc4n3)CC2)CC1` [Compound 227], the IC50 at PI3K α (p110α/p85α) was under 100 nM; at PI3K β (p110β/p85α), under 1000 nM; at PI3K δ, under 100 nM.
For the molecule `O=C(c1cnc2ccc(-c3cccc(S(=O)(=O)Nc4ccccc4)c3)cn12)N1CCOCC1` [Compound 440], the IC50 at PI3K α (p110α/p85α), at PI3K β (p110β/p85α) and at PI3K δ was over 10000 nM each time.
Turning to `Nc1nc2cc(-c3ccc4ncc(C(=O)N5CC[C@@H](F)C5)n4c3)ccc2o1` [Compound 475], the IC50 at PI3K α (p110α/p85α) is under 100 nM; at PI3K β (p110β/p85α), over 10000 nM; on PI3K δ, under 10000 nM.
Turning to `CC(=O)N1CCC(n2cnc3ccc(-c4ccc5oc(N)nc5c4)cc3c2=O)CC1` [Compound 66], the IC50 at PI3K α (p110α/p85α) is under 10000 nM; at PI3K γ (p110γ), over 10000 nM; on PI3K δ, over 10000 nM.
In the case of `Nc1n[nH]c2c(-c3ccc4ncc(C(=O)N5CCOCC5)n4c3)cccc12` [Compound 490], the IC50 at PI3K α (p110α/p85α), on PI3K β (p110β/p85α) and on PI3K δ was over 10000 nM throughout.
As for `Nc1nc2ccc(-c3cc(F)c4oc(N)nc4c3)cc2o1` [Compound 433], the IC50 at PI3K α (p110α/p85α) was under 1000 nM; at PI3K β (p110β/p85α), under 1000 nM; on PI3K δ it was under 10000 nM.
Turning to `CN1CCN(c2cnc3ccc(-c4ccc5nc(N)oc5c4)cc3n2)CC1` [Compound 118], the IC50 was under 1000 nM at PI3K α (p110α/p85α), under 100 nM at PI3K β (p110β/p85α) and over 10000 nM on PI3K δ.
On to `CN1CCN(c2ccc3ncc(-c4ccc5oc(N)nc5c4)cc3n2)CC1` [Compound 631], for which the IC50 on PI3K γ (p110γ) (Table 4 (PI3K α inhibitors)) and at PI3K δ (Table 4 (PI3K α inhibitors)) was over 10000 nM in each case.
`COCCN1CCN(c2cnc3ccc(-c4ccc5oc(N)nc5c4)cc3n2)CC1` [Compound 387]: the IC50 is under 100 nM at PI3K α (p110α/p85α), under 1000 nM at PI3K β (p110β/p85α) and over 10000 nM at PI3K δ.
Consider `Nc1nc2cc(-c3ccc4ncnc(N5CCC(O)CC5)c4c3)ccc2o1` [Compound 29], for which the IC50 on PI3K α (p110α/p85α), at PI3K γ (p110γ) and on PI3K δ was under 100 nM in each case.
In the case of `COc1ncc(-c2ccc3ncc(C(=O)N4CCOCC4)n3c2)cc1NS(=O)(=O)c1cccc(F)c1` [Compound 423], the values for the IC50 on PI3K α (p110α/p85α), at PI3K β (p110β/p85α) and on PI3K δ were under 100 nM, under 1000 nM and under 100 nM, respectively.
For the molecule `COc1ncc(-c2ccc3ncc(C(=O)N4CCOCC4)n3c2)cc1N` [Compound 414], the IC50 was under 10000 nM at PI3K α (p110α/p85α), over 10000 nM on PI3K β (p110β/p85α) and over 10000 nM at PI3K δ.
As for `CCOC(=O)N1CCN(c2cnc3ccc(-c4ccc5oc(N)nc5c4)nc3c2)CC1` [Compound 587], the IC50 was under 100 nM at PI3K α (p110α/p85α) (Table 4 (PI3K α inhibitors)), under 100 nM on PI3K γ (p110γ) (Table 4 (PI3K α inhibitors)) and over 10000 nM on PI3K δ (Table 4 (PI3K α inhibitors)).
With `Nc1nc2cc(-c3ccc4nccc(NC5CCOCC5)c4c3)ccc2o1` [Compound 32], the results for the IC50 on PI3K α (p110α/p85α), at PI3K γ (p110γ) and on PI3K δ were under 10000 nM, under 10000 nM and over 10000 nM, respectively.
As to `C[C@H]1COCCN1C1CN(c2cnc3ccc(-c4ccc5oc(N)nc5c4)nc3c2)C1` [Compound 619], the IC50 on PI3K α (p110α/p85α) (Table 4 (PI3K α inhibitors)) was under 100 nM; at PI3K β (p110β/p85α) (Table 4 (PI3K α inhibitors)) it was over 10000 nM; at PI3K δ (Table 4 (PI3K α inhibitors)) it was over 10000 nM.
